Measured values: patent US20120295838A1, “Selective poly-substituted glycine antibiotics and related compositions” (priority 2008, published 2012)
Square brackets hold non-standard residues; d marks the D form. Peptide text beside a SMILES is read from it. Nspe = C[C@H](NCC(=O)O)c1ccccc1; Nlys = NCCCCNCC(=O)O

Legend:
E. coli ATCC 35218 = assay type: cell-based; conditions: Table 8; CAMHB
[1] = tested on: Staphyloccus aureus (ATCC #25923); assay: Murine intraperitoneal infection model; assay type: in vivo; conditions: mouse, S. aureus I.P., 4 mg/kg peptoid I.P.; eleven mice for 1-Nhis6,12
Procedure: Using a murine peritoneal injection mouse model, the ability of peptoids to treat infection was evaluated in vivo. The results from three separate studies of peptoid 1 and two of peptoid 1-Nhis6,12 against saline treated controls are shown in FIG. 7. The horizontal line represents the geometric mean of each population.
Murine intraperitoneal infection model. Bacteria was prepared by inoculating 5 mL of MHB with a single colony of Staphyloccus aureus (ATCC #25923) from a freshly streaked plate and grown overnight at 37 C. The following morning, the bacteria was subcultured by diluting 1/3 in MHB and grown for approximately 1 .5 hours. The bacteria were then diluted 10-fold in a 5% mucin in PBS solution and thoroughly mixed. A sample was reserved to later determine the amount of bacteria the mice received.
Mice were weighed, marked, and injected I.P. with 200 uL of S. aureus inoculum. Four hours post infection, mice were treated I.P. with 4 mg/kg peptoid (˜100 ug per mouse). The infection is allowed to proceed overnight. Mice were euthanized by CO2 asphyxiation after 24 hours, and the peritoneal cavity was exposed and lavaged with 5 mL PBS. The lavage was mixed and reserved on ice until plating. The lavages were diluted to 10^−5 (in1/10 increments) in PBS, and all dilutions were plated onto MH agar, in duplicate. 50 uL of lavage was spot plated, allowed to dry, and incubated overnight at 37° C. Colonies were counted the following day, and the CFU/ml of each sample was calculated. Plates that had too many colonies to count were assigned an arbitrary number of 1000 colonies.

human erythrocytes = assay: Hemolysis assay; assay type: cell-based
Method in brief: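 Heparinised fresh human erythrocytes, 20 vol % in PBS pH 7.4, mixed 1:1 with 1:2 serially diluted peptoid and incubated 1 h at 37 °C. PBS alone as 0% and 0.2 vol % Triton X-100 as 100% hemolysis; after 1200 g spin for 15 min, supernatant A350 read.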

[2] = tested on: both strains of E. faecalis; assay type: cell-based; conditions: text summary of Table 7A
Procedure: The activities of ampetoids tested against BSL2 Gram-positive strains, however, compared very favorably to those of pexiganan.
Broad-spectrum antibacterial assays. MICs of compounds were determined by microdilution procedure in Mueller-Hinton broth (MHB) in accordance with CLSI M7-A6 protocols in a manner similar to that described for the screen antibacterial assays. Inoculated microtiter plates were incubated at 35° C. for 24 hours prior to the result being recorded. Four ATCC strains that were used as standards are recommended by CLSI: Pseudomonas aeruginosa ATCC 27853, Escherichia coli ATCC 25922, Staphylococcus aureus ATCC 29213 and Enterococcus faecalis ATCC 29212. Other strains from the ATCC collection include Proteus vulgaris ATCC 49132, Proteus mirabilis ATCC 35659, Klebsiella pneumoniae ATCC 33495, Enterobacter aerogenes ATCC 35029 and Serratia marcescens ATCC 13880. S. aureus NRS100 (COL) is a well characterized methicillian-resistant S. aureus (MRSA) strain. The strains S. aureus VAN1 and S. aureus VAN2, vancomycin-resistant MRSA strains that were isolated in Michigan and Pennsylvania, were the first vancomycin-resistant strains clinically isolated. S. aureus NRS 119 and S. aureus NRS 120 are linezolid-resistant isolates from the Network on Antimicrobial Resistance in S. aureus (NARSA) collection. […]

MTS assay, NIH 3T3 cells = assay type: cell-based, mouse; conditions: NIH 3T3 fibroblast cells; Table 6; 50% inhibitory dose against NIH 3T3 mouse fibroblast cells; read-out: ID50
Method in brief: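 NIH/3T3 cells seeded at 5,000 per well, grown a day in DMEM with 10% FBS, then washed and exposed to serially diluted peptoid in HBSS together with MTS reagent. Absorbance at 490 nm read after 3 hours at 37 °C as a measure of metabolic activity; mean of six replicates.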

## C[C@@H](c1ccccc1)N(CC(N)=O)C(=O)CN(C(=O)CN(CCCCN)C(=O)CN(C(=O)CN(C(=O)CN(CCCCN)C(=O)CN(C(=O)CN(C(=O)CN(CCCCN)C(=O)CN(C(=O)CN(C(=O)CNCCCCN)[C@@H](C)c1ccccc1)[C@@H](C)c1ccccc1)[C@@H](C)c1ccccc1)[C@@H](C)c1ccccc1)[C@@H](C)c1ccccc1)[C@@H](C)c1ccccc1)[C@@H](C)c1ccccc1 [compound 1, H-(NLys-Nspe-Nspe)4-NH2] (H-[Nlys][Nspe][Nspe][Nlys][Nspe][Nspe][Nlys][Nspe][Nspe][Nlys][Nspe][Nspe]-NH2)
E. coli ATCC 35218
  MIC for E. coli ATCC 35218: 6.3 µM
[1]
  mice that died prematurely during the exposure period: no mice
Human erythrocytes; Table 6, 10% hemolytic dose
  HD10: 21 µM
Human erythrocytes; Table 8
  HD10: 14 µM
  HD50: 63 µM
[2]
  MIC, range over both strains of E. faecalis: 4 to 8 µg/mL
MTS assay, NIH 3T3 cells
  CC50 at 3 h: 5.1 µM
